The term pIC50 denotes −log10 of the IC50, conventionally taken in molar units.

SMILES strings stand for the structures. pIC50: −log10 of the molar value. Active and inactive are the calls of the source. The calls are words filed in the database; no cut-off is given here.

One data set deals with SH-SY5Y. Kind of data set: Neuroprotective activity against TBHP-induced oxidative damage in human SH-SY5Y cells assessed as increase in cell viability at 10 uM pretreated for 24 hrs followed by TBHP stimulation measured after 4 hrs by MTT assay relative to control. The data set is classed as functional, cell-based.
Conditions: not given
A general note: Tetrazolium assays rely on reduction of a dye to a coloured formazan, in cell work by metabolically active cells.
For the compound `CS(=O)(=O)[O-].O=C(/C=C/c1ccc(O)c(O)c1)NCCCCCC[P+](c1ccccc1)(c1ccccc1)c1ccccc1`, the outcome was inactive.
Turning to `CS(=O)(=O)[O-].O=C(CCc1cc(O)c(O)c(O)c1)NCCCCCC[P+](c1ccccc1)(c1ccccc1)c1ccccc1`, the result was inactive.
Consider `O=C(NCCCCCC[P+](c1ccccc1)(c1ccccc1)c1ccccc1)c1cc(O)c(O)c(O)c1.[Br-]`, for which the outcome was inactive.

System in a further data set: not listed separately
The experiment in a line: Cytotoxicity against human SH-SY5Y cells assessed as cell metabolic activity at 50 uM incubated for 24 hrs by MTT assay relative to control. In kind it is ADME, cell-based. Conditions: read-out: Activity.
On to `CS(=O)(=O)[O-].O=C(/C=C/c1ccc(O)c(O)c1)NCCCCCC[P+](c1ccccc1)(c1ccccc1)c1ccccc1`, for which the viability at 24 h, 50 µM is 97.6%.
Same read-out and setting: with `CS(=O)(=O)[O-].O=C(CCc1cc(O)c(O)c(O)c1)NCCCCCC[P+](c1ccccc1)(c1ccccc1)c1ccccc1` the figure was 91.7%; with `Cc1c(C)c2c(c(C)c1O)CCC(C)(C(=O)O)O2` (stereo not drawn) [TROLOX], 3.62%.
Take `O=C(NCCCCCC[P+](c1ccccc1)(c1ccccc1)c1ccccc1)c1cc(O)c(O)c(O)c1.[Br-]`: the viability at 24 h, 50 µM amounted to 98.2%.

System in another data set: not listed separately
Kind of data set: Cytotoxicity against human HepG2 cells assessed as cell metabolic activity at 10 uM incubated for 48 hrs by resazurin assay relative to control. In kind it is ADME, cell-based. Conditions: read-out: Activity.
Take `CS(=O)(=O)[O-].O=C(/C=C/c1ccc(O)c(O)c1)NCCCCCC[P+](c1ccccc1)(c1ccccc1)c1ccccc1`: the viability at 48 h, 10 µM is 111%.
Still for that read-out and setting: the same measure for `CS(=O)(=O)[O-].O=C(CCc1cc(O)c(O)c(O)c1)NCCCCCC[P+](c1ccccc1)(c1ccccc1)c1ccccc1`: 113%; for `Cc1c(C)c2c(c(C)c1O)CCC(C)(C(=O)O)O2` (stereo not drawn) [TROLOX]: 5.99%.
As for `O=C(NCCCCCC[P+](c1ccccc1)(c1ccccc1)c1ccccc1)c1cc(O)c(O)c(O)c1.[Br-]`, the viability at 48 h, 10 µM amounted to 89.4%.

System in another data set: not listed separately
The experiment in a line: Antioxidant activity assessed as DPPH radical scavenging activity measured after 45 mins by UV-Visible spectrophotometric based assay. The data set is classed as functional.
Conditions: not given
(The DPPH test is a chemical assay of radical scavenging.)
With `CS(=O)(=O)[O-].O=C(/C=C/c1ccc(O)c(O)c1)NCCCCCC[P+](c1ccccc1)(c1ccccc1)c1ccccc1`, the negative logarithm of the IC50 (pIC50) was 4.53.
For `CS(=O)(=O)[O-].O=C(CCc1cc(O)c(O)c(O)c1)NCCCCCC[P+](c1ccccc1)(c1ccccc1)c1ccccc1`, the pIC50 is 4.69.
As for `Cc1c(C)c2c(c(C)c1O)CCC(C)(C(=O)O)O2` (stereo not drawn) [TROLOX], the pIC50 was 4.51.
`O=C(NCCCCCC[P+](c1ccccc1)(c1ccccc1)c1ccccc1)c1cc(O)c(O)c(O)c1.[Br-]`: the pIC50 was 4.85.

System in another data set: not listed separately
Kind of data set: Antioxidant activity assessed as ABTS radical scavenging activity measured after 15 mins by UV-Visible spectrophotometric based assay. The data set is classed as functional.
Conditions: not given
On to `CS(=O)(=O)[O-].O=C(/C=C/c1ccc(O)c(O)c1)NCCCCCC[P+](c1ccccc1)(c1ccccc1)c1ccccc1`, for which the negative-log IC50 (pIC50) was 4.52.
Still for that read-out and setting: the same measure for `CS(=O)(=O)[O-].O=C(CCc1cc(O)c(O)c(O)c1)NCCCCCC[P+](c1ccccc1)(c1ccccc1)c1ccccc1`: 4.96.
In the case of `Cc1c(C)c2c(c(C)c1O)CCC(C)(C(=O)O)O2` (stereo not drawn) [TROLOX], the negative-log IC50 (pIC50) was 4.61.
Still for that read-out and setting: with `O=C(NCCCCCC[P+](c1ccccc1)(c1ccccc1)c1ccccc1)c1cc(O)c(O)c(O)c1.[Br-]` the figure was 5.19.

System in the next data set: not listed separately
The experiment in a line: Electrochemical behavior of the compound assessed as redox potential corrected toward saturated Ag/AgCl reference electrode by cyclic voltammetry.
Conditions: not given
Take `CS(=O)(=O)[O-].O=C(/C=C/c1ccc(O)c(O)c1)NCCCCCC[P+](c1ccccc1)(c1ccccc1)c1ccccc1`: the Activity amounted to 164 mV.
For `CS(=O)(=O)[O-].O=C(CCc1cc(O)c(O)c(O)c1)NCCCCCC[P+](c1ccccc1)(c1ccccc1)c1ccccc1`, the Activity is 11 mV.
On the same count and under the same terms, the same measure for `Cc1c(C)c2c(c(C)c1O)CCC(C)(C(=O)O)O2` (stereo not drawn) [TROLOX]: 113 mV; for `O=C(NCCCCCC[P+](c1ccccc1)(c1ccccc1)c1ccccc1)c1cc(O)c(O)c(O)c1.[Br-]`: 115 mV.

System in the next data set: not listed separately
Kind of data set: Electrochemical behavior of the compound assessed as redox potential corrected toward saturated Ag/AgCl reference electrode by differential pulse voltammetry.
Conditions: not given
`CS(=O)(=O)[O-].O=C(/C=C/c1ccc(O)c(O)c1)NCCCCCC[P+](c1ccccc1)(c1ccccc1)c1ccccc1`: the Activity turned out to be 164 mV.
Regarding `CS(=O)(=O)[O-].O=C(CCc1cc(O)c(O)c(O)c1)NCCCCCC[P+](c1ccccc1)(c1ccccc1)c1ccccc1`, the Activity worked out at 547 mV.
Still for that read-out and setting: the same measure for `Cc1c(C)c2c(c(C)c1O)CCC(C)(C(=O)O)O2` (stereo not drawn) [TROLOX]: 113 mV; for `O=C(NCCCCCC[P+](c1ccccc1)(c1ccccc1)c1ccccc1)c1cc(O)c(O)c(O)c1.[Br-]`: 559 mV.

System in the next data set: not listed separately
The experiment in a line: Metal chelating activity assessed as compound-Fe2+ complex formation at 100 uM incubated for 10 mins by ferrozine spectrophotometric assay.
Conditions: not given
As for `CS(=O)(=O)[O-].O=C(/C=C/c1ccc(O)c(O)c1)NCCCCCC[P+](c1ccccc1)(c1ccccc1)c1ccccc1`, the Activity was > 80%.
Turning to `CS(=O)(=O)[O-].O=C(CCc1cc(O)c(O)c(O)c1)NCCCCCC[P+](c1ccccc1)(c1ccccc1)c1ccccc1`, the Activity is > 80%.
As to `O=C(NCCCCCC[P+](c1ccccc1)(c1ccccc1)c1ccccc1)c1cc(O)c(O)c(O)c1.[Br-]`, the Activity was > 80%.

System in a further data set: not listed separately
The experiment in a line: Cytotoxicity against human SH-SY5Y cells assessed as cell metabolic activity at 10 uM incubated for 24 hrs by MTT assay relative to control. In kind it is ADME, cell-based. To be noted: read-out: Activity.
Turning to `CS(=O)(=O)[O-].O=C(/C=C/c1ccc(O)c(O)c1)NCCCCCC[P+](c1ccccc1)(c1ccccc1)c1ccccc1`, the viability at 24 h, 10 µM worked out at 103%.
Turning to `CS(=O)(=O)[O-].O=C(CCc1cc(O)c(O)c(O)c1)NCCCCCC[P+](c1ccccc1)(c1ccccc1)c1ccccc1`, the viability at 24 h, 10 µM stood at 95.9%.
Turning to `Cc1c(C)c2c(c(C)c1O)CCC(C)(C(=O)O)O2` (stereo not drawn) [TROLOX], the viability at 24 h, 10 µM was found to be 3.62%.
For the compound `O=C(NCCCCCC[P+](c1ccccc1)(c1ccccc1)c1ccccc1)c1cc(O)c(O)c(O)c1.[Br-]`, the viability at 24 h, 10 µM is 100%.

System in a further data set: not listed separately
Kind of data set: Cytotoxicity against human HepG2 cells assessed as cell metabolic activity at 50 uM incubated for 48 hrs by resazurin assay relative to control. The data set is classed as ADME, cell-based. Conditions: read-out: Activity. On the technique in general: Resazurin is reduced to fluorescent resorufin, in cell work by metabolically active cells.
On to `CS(=O)(=O)[O-].O=C(/C=C/c1ccc(O)c(O)c1)NCCCCCC[P+](c1ccccc1)(c1ccccc1)c1ccccc1`, for which the viability at 48 h, 50 µM is 112%.
For the compound `CS(=O)(=O)[O-].O=C(CCc1cc(O)c(O)c(O)c1)NCCCCCC[P+](c1ccccc1)(c1ccccc1)c1ccccc1`, the viability at 48 h, 50 µM is 117%.
The same measure, in the same setting: the same measure for `Cc1c(C)c2c(c(C)c1O)CCC(C)(C(=O)O)O2` (stereo not drawn) [TROLOX]: 5.99%.
With `O=C(NCCCCCC[P+](c1ccccc1)(c1ccccc1)c1ccccc1)c1cc(O)c(O)c(O)c1.[Br-]`, the viability at 48 h, 50 µM came out at 88.5%.

Another data set relates to SH-SY5Y. The experiment in a line: Induction of ROS generation in human SH-SY5Y cells at 50 uM incubated for 24 hrs by DCFH-DA probe based fluorescence assay relative to control. The data set is classed as functional.
Conditions: not given
Turning to `CS(=O)(=O)[O-].O=C(CCc1cc(O)c(O)c(O)c1)NCCCCCC[P+](c1ccccc1)(c1ccccc1)c1ccccc1`, the result was Active.
`O=C(NCCCCCC[P+](c1ccccc1)(c1ccccc1)c1ccccc1)c1cc(O)c(O)c(O)c1.[Br-]`: the result was Active.

The next data set relates to SH-SY5Y. The experiment in a line: Neuroprotective activity against 6-OHDA-induced toxicity in human SH-SY5Y cells assessed as reduction in cell damage at 10 to 50 uM pretreated for 24 hrs followed by 6-OHDA challenge and measured after 24 hrs by MTT assay relative to control.
Conditions: not given
The data set is classed as functional.
In the case of `CS(=O)(=O)[O-].O=C(/C=C/c1ccc(O)c(O)c1)NCCCCCC[P+](c1ccccc1)(c1ccccc1)c1ccccc1`, the outcome was inactive.
Still for that read-out and setting: the same measure for `CS(=O)(=O)[O-].O=C(CCc1cc(O)c(O)c(O)c1)NCCCCCC[P+](c1ccccc1)(c1ccccc1)c1ccccc1`: “Active”.
Still for that read-out and setting: the same measure for `O=C(NCCCCCC[P+](c1ccccc1)(c1ccccc1)c1ccccc1)c1cc(O)c(O)c(O)c1.[Br-]`: “inactive”.

The next data set deals with SH-SY5Y. Kind of data set: Neuroprotective activity against H2O2-induced oxidative damage in human SH-SY5Y cells assessed as reduction in cell damage at 10 uM pretreated for 24 hrs followed by H2O2 challenge measured after 30 mins by MTT assay relative to control. Also noted: scale not given: the % may be the effect or the level left.
Conditions: not given
The data set is classed as functional.
As to `CS(=O)(=O)[O-].O=C(/C=C/c1ccc(O)c(O)c1)NCCCCCC[P+](c1ccccc1)(c1ccccc1)c1ccccc1`, the Activity is on record as 70.8 - 83.3%.
As to `O=C(NCCCCCC[P+](c1ccccc1)(c1ccccc1)c1ccccc1)c1cc(O)c(O)c(O)c1.[Br-]`, the Activity is given as 70.8 - 83.3%.

The next data set has as its system SH-SY5Y. Kind of data set: Neuroprotective activity against H2O2-induced oxidative damage in human SH-SY5Y cells assessed as reduction in cell damage at 50 uM pretreated for 24 hrs followed by H2O2 challenge measured after 30 mins by MTT assay relative to control. The data set is classed as functional. Also noted: scale not given: the % may be the effect or the level left.
Conditions: not given
Turning to `CS(=O)(=O)[O-].O=C(/C=C/c1ccc(O)c(O)c1)NCCCCCC[P+](c1ccccc1)(c1ccccc1)c1ccccc1`, the Activity is listed as 70.8 - 83.3%.
The same measure, in the same setting: with `O=C(NCCCCCC[P+](c1ccccc1)(c1ccccc1)c1ccccc1)c1cc(O)c(O)c(O)c1.[Br-]` the figure was 70.8 - 83.3%.

The next data set relates to SH-SY5Y. Kind of data set: Neuroprotective activity against TBHP-induced oxidative damage in human SH-SY5Y cells assessed as increase in cell viability at 50 uM pretreated for 24 hrs followed by TBHP stimulation measured after 4 hrs by MTT assay relative to control. The data set is classed as functional.
Conditions: not given
With `CS(=O)(=O)[O-].O=C(/C=C/c1ccc(O)c(O)c1)NCCCCCC[P+](c1ccccc1)(c1ccccc1)c1ccccc1`, the outcome was inactive.
On to `CS(=O)(=O)[O-].O=C(CCc1cc(O)c(O)c(O)c1)NCCCCCC[P+](c1ccccc1)(c1ccccc1)c1ccccc1`, for which the result was inactive.
Consider `O=C(NCCCCCC[P+](c1ccccc1)(c1ccccc1)c1ccccc1)c1cc(O)c(O)c(O)c1.[Br-]`, for which the outcome was inactive.

System in the next data set: not listed separately
The experiment in a line: Cytotoxicity against human CMEC/D3 cells assessed as reduction in cell viability at 50 to 100 uM incubated for 4 hrs by MTT assay relative to control. In kind it is cell-based. Conditions: hcmec/d3, 4 h.
On to `CS(=O)(=O)[O-].O=C(CCc1cc(O)c(O)c(O)c1)NCCCCCC[P+](c1ccccc1)(c1ccccc1)c1ccccc1`, for which the Activity result was “Non-Toxic”.

System in another data set: not listed separately
The experiment in a line: Apparent permeability across apical to basolateral side in human CMEC/D3 cells at 100 uM incubated up to 180 mins by UV-VIS spectroscopic method. The data set is classed as ADME, cell-based. Conditions: hcmec/d3, 3 h.
With `CS(=O)(=O)[O-].O=C(CCc1cc(O)c(O)c(O)c1)NCCCCCC[P+](c1ccccc1)(c1ccccc1)c1ccccc1`, the permeability came out at 23.7%.

System in another data set: not listed separately
Kind of data set: Apparent permeability across apical to basolateral side in human CMEC/D3 cells at 100 uM incubated by UV-VIS spectroscopic method. Conditions: hcmec/d3, 100 µM, TDE = time-dependent effect. The data set is classed as ADME, cell-based.
Regarding `CS(=O)(=O)[O-].O=C(CCc1cc(O)c(O)c(O)c1)NCCCCCC[P+](c1ccccc1)(c1ccccc1)c1ccccc1`, the permeability result is “Tde”.

For the origin of these results see ChEMBL document CHEMBL4390649, “Fine-tuning the neuroprotective and blood-brain barrier permeability profile of multi-target agents designed to prevent progressive mitochondrial dysfunction” (Eur J Med Chem, 2019).
